Consider six compounds from article PMC10145249, “Synthesis and Evaluation of ^68Ga-Labeled (2S,4S)-4-Fluoropyrrolidine-2-Carbonitrile and (4R)-Thiazolidine-4-Carbonitrile Derivatives as Novel Fibroblast Activation Protein-Targeted PET Tracers for Cancer Imaging” (Molecules, 2023).

The nature of series [1]: LogD7.4 measurement (n-octanol / phosphate buffer pH 7.4). In kind it is physicochemical. The note with it: n-octanol / 0.1 M phosphate buffer pH 7.4, n = 3. On the procedure:
Briefly, ^68Ga-labeled tracers (1.11–1.48 MBq) were aliquoted into vials containing 3 mL of n-octanol and 3 mL of 0.1 M phosphate buffer (pH 7.4) in triplicate. Each vial was then vortexed (1 min) and centrifuged (5000 RPM, 10 min). The n-octanol and aqueous layers were sampled (1 mL) and counted using an automated gamma counter and the LogD7.4 value was calculated using the following equation: LogD7.4=log10counts in n-octanol phase/counts in buffer phase

Series [2] concerns HEK293T:hFAP tumor xenografts. Put plainly: PET/CT imaging in HEK293T:hFAP tumor-bearing mice. In kind it is in vivo. The following applies: for Visualization of tumor xenografts in PET/CT images / Excretion pathway: 1 h pi; for Excretion pathway: PET/CT. On the procedure:
(§1) Imaging and biodistribution studies were performed using immunodeficient male NRG (NOD.Cg-Rag1tm1Mom Il2rgtm1Wjl/SzJ) mice. All experiments were conducted according to the guidelines established by the Canadian Council on Animal Care and approved by Animal Ethics Committee of the University of British Columbia. The mice were subcutaneously inoculated with 7.5 × 10^6 HEK293T:hFAP cells in the left dorsal flank. When the tumors grew to 6–8 mm in diameter, the mice were used for PET/CT imaging and biodistribution studies.
PET/CT imaging experiments were carried out using a Siemens Inveon micro PET/CT scanner (Knoxville, TN, USA). Tumor-bearing mice were injected with ~4 to 6 MBq (0.02–0.13 nmol) of ^68Ga-labeled tracer through a lateral caudal tail vein under 2.5% isoflurane in oxygen anesthesia, followed by recovery and free roaming in their cage during the uptake period. A 10 min localization CT scan was acquired using 3 overlapping positions to cover each entire mouse. A CT scan was used for attenuation and scatter correction, and anatomical localization. A list mode acquisition was then performed for 15 min at 1 h pi with each mouse under isoflurane sedation. The images were reconstructed using 3D OSEM/MAP iterative methods.
(§2) For blocking studies, HEK293T:hFAP tumor-bearing mice were co-injected with [^68Ga]Ga-SB03045 and excess nonradioactive Ga-FAPI-04 (0.5 mg/mouse) as a competitor. Imaging and biodistribution were performed at 1 h pi, similar to the process for the unblocked mice.

Series [3] relates to HEK293T:hFAP tumor-bearing mice. Put plainly: Ex vivo biodistribution in HEK293T:hFAP tumor xenograft mouse model. On the procedure:
as §1
For biodistribution studies, the mice were injected with ~1–2 MBq (0.01–0.04 nmol) of the ^68Ga-labeled tracer, using the exact procedures described above. At 1 h post injection, the mice were euthanized by CO2 inhalation. Blood was withdrawn by cardiac puncture and organs/tissues of interest were collected, weighed, and counted using a Perkin Elmer (Waltham, MA, USA) Wizard2 2480 automatic gamma counter. The percent injected dose per gram of tissues (%ID/g) for different tracers was calculated.
as §2

Series [4] deals with FAP. More on the design: method as in PMID 24617858. The following applies: cited from earlier work; for IC50: (4-quinolinoyl)-glycyl-2-cyanopyrrolidine series, read-out: IC50 (FAP-inhibitory potency).
The subject of series [5] is FAP. More on the design: method as in PMID 20718420. The note with it: substituted 4-carboxymethylpyroglutamic acid scaffold; read-out: IC50 (FAP-inhibitory activity); cited from earlier work.
Another series deals with T1, recombinant human FAP (Homo sapiens, UniProt Q12884).
T1 construct: purchased Biolegend
T1 sequence (Q12884 1-760): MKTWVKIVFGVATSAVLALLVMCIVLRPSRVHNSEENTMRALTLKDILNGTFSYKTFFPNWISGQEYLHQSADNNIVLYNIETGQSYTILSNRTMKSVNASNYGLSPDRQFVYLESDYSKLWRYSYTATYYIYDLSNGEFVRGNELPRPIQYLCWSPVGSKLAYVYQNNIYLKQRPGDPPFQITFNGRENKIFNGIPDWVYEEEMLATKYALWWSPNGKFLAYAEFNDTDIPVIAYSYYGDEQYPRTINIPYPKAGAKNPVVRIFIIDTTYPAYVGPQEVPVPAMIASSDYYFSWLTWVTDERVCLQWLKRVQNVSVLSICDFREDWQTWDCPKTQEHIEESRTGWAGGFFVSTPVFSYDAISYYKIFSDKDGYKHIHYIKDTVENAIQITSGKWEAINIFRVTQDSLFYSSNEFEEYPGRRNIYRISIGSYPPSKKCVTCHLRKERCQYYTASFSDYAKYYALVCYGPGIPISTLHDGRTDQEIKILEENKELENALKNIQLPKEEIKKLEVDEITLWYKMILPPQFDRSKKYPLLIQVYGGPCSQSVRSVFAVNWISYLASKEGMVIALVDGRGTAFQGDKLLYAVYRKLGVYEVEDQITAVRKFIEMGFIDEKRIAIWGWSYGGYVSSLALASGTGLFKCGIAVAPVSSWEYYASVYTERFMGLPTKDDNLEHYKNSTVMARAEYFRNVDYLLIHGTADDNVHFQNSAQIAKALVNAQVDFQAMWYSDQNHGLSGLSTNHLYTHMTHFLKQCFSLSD
Put plainly: In vitro fluorescence-based FAP enzymatic inhibition assay (Suc-Gly-Pro-AMC substrate). The note with it: for IC50: recombinant human FAP, Suc-Gly-Pro-AMC, n = 3. Type of series: biochemical. On the procedure: The half-maximal inhibitory concentration (IC50) values of the FAP-targeted ligands were measured using an in vitro enzymatic assay. Briefly, recombinant human FAP (Biolegend, San Diego, CA, USA; 0.2 µg/mL, 50 µL) was added into a Costar clear bottom 96-well plate. PBS and varied concentrations (25 pM to 1 µM) of ^natGa-complexed ligands were added to each well (in duplicate) containing the recombinant human FAP. After being incubated for 30 min at 37 °C, Suc-Gly-Pro-AMC (Bachem, Bubendorf, Switzerland; 20 mM, 50 µL) was added to each well. The velocities of AMC release were measured kinetically at λex = 380 nm, λem = 460 nm at 60 min at 37 °C using a FlexStation 3 Multi-Mode Microplate Reader.

Where [6] appears, read: HEK293T:hFAP tumor-bearing mice, 1 h pi, unblocked.
The mark [7] stands for this setting: 0.5 mg/mouse natGa-FAPI-04, 1 h pi.
Setting [8] is: HEK293T:hFAP tumor-bearing mice, 1 h pi, blocked: co-injected with natGa-FAPI-04 (0.5 mg/mouse).

Like-named read-outs stand apart in the source and are kept apart here.

In the case of `N#C[C@@H]1CSCN1C(=O)CNC(=O)c1ccnc2ccc(OCCCN3CCN(C(=O)CN4CCN5CCN(CC(=O)O)CCN(CC4)CC(=O)[O][68Ga+][O]C(=O)C5)CC3)cc12` [[^68Ga]Ga-SB03058], the LogD7.4 in series [1] is −2.49 ± 0.28. For the same compound, in series [2], the “Visualization of tumor xenografts in PET/CT images” value was “clearly visualized” and the Excretion pathway entry was “excreted mainly via the renal pathway”. Besides, in series [3] (HEK293T:hFAP tumor-bearing mice, 1 h pi), the “Fold lower tumor uptake than [68Ga]Ga-FAPI-04” value is reported as ~ 1.5 fold. Besides, in series [3] (setting [6]), the “Adrenal Glands uptake” value is 2.50 ± 1.58 %ID/g, the Blood uptake is 2.07 ± 0.21 %ID/g, the Bone uptake was 4.73 ± 0.52 %ID/g and the Brain uptake is 0.11 ± 0.08 %ID/g. In series [3] (setting [6]), this compound gave a Fat uptake of 0.40 ± 0.23 %ID/g, a Heart uptake of 0.59 ± 0.09 %ID/g, a Kidneys uptake of 2.64 ± 0.28 %ID/g and a Liver uptake of 0.62 ± 0.19 %ID/g. In series [3] (setting [6]), the Lungs uptake is reported as 1.25 ± 0.11 %ID/g, the Muscle uptake was found to be 1.42 ± 0.31 %ID/g, the Pancreas uptake was found to be 0.86 ± 0.16 %ID/g and the “Small Intestines uptake” value was 0.61 ± 0.05 %ID/g. In series [3] (setting [6]), this compound had a Spleen uptake of 1.48 ± 1.01 %ID/g, a Stomach uptake of 0.26 ± 0.07 %ID/g, a Testes uptake of 0.48 ± 0.10 %ID/g and a Tumor uptake of 7.93 ± 1.33 %ID/g. Besides, in series [3] (setting [6]), the Tumor/Blood uptake ratio turned out to be 3.82 ± 0.25, the Tumor/Bone uptake ratio amounted to 1.67 ± 0.13, the Tumor/Kidney uptake ratio amounted to 3.01 ± 0.32 and the Tumor/Muscle uptake ratio stood at 5.64 ± 0.62.
In the case of `N#CC1CCCN1C(=O)CNC(=O)c1ccnc2ccccc12` (centres unmarked) [unsubstituted analog], the figures for the IC50 in the series with FAP [4] and in the series with FAP [5] were […] and […], respectively.
Consider `N#C[C@@H]1CSCN1C(=O)CNC(=O)c1ccnc2ccc(OCCCN3CCN(C(=O)CN4CCN5CCN(CC(=O)O)CCN(CC4)CC(=O)[O][Ga+][O]C(=O)C5)CC3)cc12` [^natGa-SB03058], for which, at recombinant human FAP, the “FAP-binding potency, fold higher than the di-fluorinated analog (natGa-FAPI-04)” value is recorded as more than 5 fold and the IC50 amounted to 0.68 ± 0.09 nM.
Regarding `N#CC1CC(F)CN1C(=O)CNC(=O)c1ccnc2ccccc12` [(4S)-fluoropyrrolidine], in the series with FAP [4], the IC50 is 3.3 nM and the “Fold higher FAP affinity than the unsubstituted analog” value is given as […].
As to `N#C[C@@H]1C[C@H](F)CN1C(=O)CNC(=O)c1ccnc2ccc(OCCCN3CCN(C(=O)CN4CCN5CCN(CC(=O)O)CCN(CC4)CC(=O)[O][Ga+][O]C(=O)C5)CC3)cc12` [^natGa-SB03045], the IC50 on recombinant human FAP is 1.59 ± 0.45 nM.
Compound `N#C[C@@H]1C[C@H](F)CN1C(=O)CNC(=O)c1ccnc2ccc(OCCCN3CCN(C(=O)CN4CCN5CCN(CC(=O)O)CCN(CC4)CC(=O)[O][68Ga+][O]C(=O)C5)CC3)cc12` [[^68Ga]Ga-SB03045] had a LogD7.4 in series [1] of −2.81 ± 0.05. Further, in series [2], the “Visualization of tumor xenografts in PET/CT images” value was “clearly visualized” and the Excretion pathway entry is recorded as “excreted mainly via the renal pathway”. In series [2] (blocked, 0.5 mg/mouse natGa-FAPI-04, 1 h pi), the “Tumor uptake in PET/CT on co-injection with natGa-FAPI-04” value was “reduced the tumor uptake to almost background level”. For the same compound, in series [3] (setting [7]), the “Reduction in bone uptake by co-injection of excess natGa-FAPI-04” value is recorded as ~ 97% and the “Reduction of average tumor uptake by co-injection of natGa-FAPI-04” value is ~ 96%. Also, in series [3] (setting [8]), the “Adrenal Glands uptake” value was 0.14 ± 0.08 %ID/g, the Blood uptake turned out to be 0.19 ± 0.12 %ID/g, the Bone uptake was 0.09 ± 0.05 %ID/g and the Brain uptake turned out to be 0.01 ± 0.01 %ID/g. Moreover, in series [3] (setting [8]), the Fat uptake is 0.04 ± 0.02 %ID/g, the Heart uptake came out at 0.05 ± 0.03 %ID/g, the Kidneys uptake is given as 1.03 ± 0.43 %ID/g and the Liver uptake is 0.13 ± 0.04 %ID/g. Further, in series [3] (setting [8]), the Lungs uptake is reported as 0.15 ± 0.09 %ID/g, the Muscle uptake is listed as 0.05 ± 0.03 %ID/g, the Pancreas uptake worked out at 0.04 ± 0.03 %ID/g and the “Small Intestines uptake” value is given as 0.12 ± 0.06 %ID/g. Moreover, in series [3] (setting [8]), the Spleen uptake turned out to be 0.10 ± 0.05 %ID/g, the Stomach uptake was found to be 0.07 ± 0.06 %ID/g, the Testes uptake is 0.06 ± 0.03 %ID/g and the Tumor uptake was found to be 0.51 %ID/g. Further, in series [3] (setting [8]), the Tumor/Blood uptake ratio turned out to be 3.06 ± 1.01, the Tumor/Bone uptake ratio is given as 6.67 ± 2.72, the Tumor/Kidney uptake ratio was 0.50 ± 0.01 and the Tumor/Muscle uptake ratio is reported as 12.4 ± 5.48. In series [3] (setting [6]), the “Adrenal Glands uptake” value is on record as 0.49 ± 0.47 %ID/g, the Blood uptake is 1.31 ± 0.43 %ID/g, the Bone uptake came out at 3.48 ± 1.02 %ID/g and the Brain uptake came to 0.05 ± 0.01 %ID/g. In series [3] (setting [6]), this compound registered a Fat uptake of 0.14 ± 0.08 %ID/g, a Heart uptake of 0.41 ± 0.15 %ID/g, a Kidneys uptake of 2.23 ± 0.41 %ID/g and a Liver uptake of 0.47 ± 0.10 %ID/g. Also, in series [3] (setting [6]), the Lungs uptake is reported as 0.69 ± 0.20 %ID/g, the Muscle uptake was 0.83 ± 0.42 %ID/g, the Pancreas uptake is recorded as 0.52 ± 0.22 %ID/g and the “Small Intestines uptake” value was determined as 0.40 ± 0.10 %ID/g. Moreover, in series [3] (setting [6]), the Spleen uptake is reported as 0.49 ± 0.19 %ID/g, the Stomach uptake was 0.31 ± 0.04 %ID/g, the Testes uptake is reported as 0.26 ± 0.08 %ID/g and the Tumor uptake was determined as 11.8 ± 2.35 %ID/g. Also, in series [3] (setting [6]), the Tumor/Blood uptake ratio is 9.89 ± 3.80, the Tumor/Bone uptake ratio turned out to be 3.58 ± 1.07, the Tumor/Kidney uptake ratio stood at 5.41 ± 1.32 and the Tumor/Muscle uptake ratio was found to be 17.2 ± 8.68.

For orientation: IC50 means the concentration needed to halve the response being measured.
